How the values were obtained:
[1] = refractive index (Na D-line) (dimensionless); wn = mass fraction of the nth substance listed; conditions: 100 kPa, Liquid, Standard Abbe refractometry
[2] = wn = mass fraction of the nth substance listed; conditions: for surface tension liquid-gas: Maximal bubble pressure; for mass density: 100 kPa, Liquid, Vibrating tube method

CCn1cc[n+](CCOC)c1.N#C[N-]C#N [1-ethyl-3-(2-methoxyethyl)imidazolium dicyanamide] + O
Conditions | mass density, [2] [kg/m3] | refractive index, [1] | surface tension liquid-gas, [2] [mN/m]
298.15 K, w2 = 0.00031 | – | – | 51.1
298.15 K, w2 = 0.00148 | 1113.35 | 1.5049 | –
298.15 K, w2 = 0.00175 | – | – | 51.3
298.15 K, w2 = 0.00277 | 1113.18 | 1.5045 | –
298.15 K, w2 = 0.00317 | – | – | 51.7
298.15 K, w2 = 0.00434 | 1112.96 | 1.5041 | –
298.15 K, w2 = 0.00461 | – | – | 52
298.15 K, w2 = 0.0055 | 1112.77 | 1.5037 | –
298.15 K, w2 = 0.00609 | – | – | 52.3
298.15 K, w2 = 0.00719 | 1112.46 | 1.5033 | –
303.15 K, w2 = 0.00031 | – | – | 50.8
303.15 K, w2 = 0.00148 | 1109.96 | 1.5036 | –
303.15 K, w2 = 0.00175 | – | – | 51.1
303.15 K, w2 = 0.00277 | 1109.78 | 1.5032 | –
303.15 K, w2 = 0.00317 | – | – | 51.4
303.15 K, w2 = 0.00434 | 1109.57 | 1.5028 | –
303.15 K, w2 = 0.00461 | – | – | 51.7
303.15 K, w2 = 0.0055 | 1109.37 | 1.5024 | –
303.15 K, w2 = 0.00609 | – | – | 52
303.15 K, w2 = 0.00719 | 1109.06 | 1.5019 | –
308.15 K, w2 = 0.00031 | – | – | 50.5
308.15 K, w2 = 0.00148 | 1106.58 | 1.5024 | –
308.15 K, w2 = 0.00175 | – | – | 50.8
308.15 K, w2 = 0.00277 | 1106.41 | 1.5019 | –
308.15 K, w2 = 0.00317 | – | – | 51.1
308.15 K, w2 = 0.00434 | 1106.19 | 1.5015 | –
308.15 K, w2 = 0.00461 | – | – | 51.4
308.15 K, w2 = 0.0055 | 1106 | 1.501 | –
308.15 K, w2 = 0.00609 | – | – | 51.7
308.15 K, w2 = 0.00719 | 1105.69 | 1.5006 | –
313.15 K, w2 = 0.00031 | – | – | 50.2
313.15 K, w2 = 0.00148 | 1103.23 | 1.5012 | –
313.15 K, w2 = 0.00175 | – | – | 50.5
313.15 K, w2 = 0.00277 | 1103.05 | 1.5007 | –
313.15 K, w2 = 0.00317 | – | – | 50.8
313.15 K, w2 = 0.00434 | 1102.83 | 1.5002 | –
313.15 K, w2 = 0.00461 | – | – | 51.1
313.15 K, w2 = 0.0055 | 1102.64 | 1.4996 | –
313.15 K, w2 = 0.00609 | – | – | 51.4
313.15 K, w2 = 0.00719 | 1102.33 | 1.4992 | –
318.15 K, w2 = 0.00031 | – | – | 49.9
318.15 K, w2 = 0.00148 | 1099.89 | 1.4996 | –
318.15 K, w2 = 0.00175 | – | – | 50.2
318.15 K, w2 = 0.00277 | 1099.72 | 1.4992 | –
318.15 K, w2 = 0.00317 | – | – | 50.5
318.15 K, w2 = 0.00434 | 1099.5 | 1.4987 | –
318.15 K, w2 = 0.00461 | – | – | 50.8
318.15 K, w2 = 0.0055 | 1099.3 | 1.4982 | –
318.15 K, w2 = 0.00609 | – | – | 51.1
318.15 K, w2 = 0.00719 | 1098.99 | 1.4979 | –
323.15 K, w2 = 0.00031 | – | – | 49.6
323.15 K, w2 = 0.00148 | 1096.58 | 1.4984 | –
323.15 K, w2 = 0.00175 | – | – | 49.9
323.15 K, w2 = 0.00277 | 1096.4 | 1.498 | –
323.15 K, w2 = 0.00317 | – | – | 50.2
323.15 K, w2 = 0.00434 | 1096.18 | 1.4975 | –
323.15 K, w2 = 0.00461 | – | – | 50.6
323.15 K, w2 = 0.0055 | 1095.98 | 1.497 | –
323.15 K, w2 = 0.00609 | – | – | 50.8
323.15 K, w2 = 0.00719 | 1095.66 | 1.4965 | –
328.15 K, w2 = 0.00031 | – | – | 49.4
328.15 K, w2 = 0.00148 | 1093.27 | 1.4971 | –
328.15 K, w2 = 0.00175 | – | – | 49.7
328.15 K, w2 = 0.00277 | 1093.1 | 1.4966 | –
328.15 K, w2 = 0.00317 | – | – | 50
328.15 K, w2 = 0.00434 | 1092.88 | 1.496 | –
328.15 K, w2 = 0.00461 | – | – | 50.4
328.15 K, w2 = 0.0055 | 1092.68 | 1.4955 | –
328.15 K, w2 = 0.00609 | – | – | 50.6
328.15 K, w2 = 0.00719 | 1092.36 | 1.4949 | –
333.15 K, w2 = 0.00031 | – | – | 49.1
333.15 K, w2 = 0.00148 | 1090 | 1.4954 | –
333.15 K, w2 = 0.00175 | – | – | 49.5
333.15 K, w2 = 0.00277 | 1089.82 | 1.495 | –
333.15 K, w2 = 0.00317 | – | – | 49.8
333.15 K, w2 = 0.00434 | 1089.59 | 1.4945 | –
333.15 K, w2 = 0.00461 | – | – | 50.1
333.15 K, w2 = 0.0055 | 1089.4 | 1.4939 | –
333.15 K, w2 = 0.00609 | – | – | 50.4
333.15 K, w2 = 0.00719 | 1089.08 | 1.4934 | –
338.15 K, w2 = 0.00031 | – | – | 48.8
338.15 K, w2 = 0.00148 | 1086.74 | 1.4941 | –
338.15 K, w2 = 0.00175 | – | – | 49.2
338.15 K, w2 = 0.00277 | 1086.56 | 1.4935 | –
338.15 K, w2 = 0.00317 | – | – | 49.5
338.15 K, w2 = 0.00434 | 1086.33 | 1.4929 | –
338.15 K, w2 = 0.00461 | – | – | 49.8
338.15 K, w2 = 0.0055 | 1086.13 | 1.4923 | –
338.15 K, w2 = 0.00609 | – | – | 50.1
338.15 K, w2 = 0.00719 | 1085.81 | 1.4919 | –

— the NIST ThermoML archive (doi:10.1016/j.jct.2017.03.016)
